The values below come from patent publication US20260234153A1, “NON-COVALENT DIMER CATION OF PURINE/PYRIMIDINE AND AMINO ACID, SALT THEREOF, PREPARATION METHOD THEREFOR, AND USE THEREOF” (Suzhou Protonation Chain Biotechnology Co., Ltd, priority 2023, published 2026).

The subject of experiment [1] is GES-1 human gastric mucosal epithelial cells. In words: Ethanol induced damage model of gastric mucosal epithelial cells, cell viability. The note with it: GES1, GES-1 cells, 7% ethanol 12 h, then compound concentration 0.5 mg/mL, 24 h. In kind it is cell-based. As for the experimental part:
Chronic alcoholics are prone to gastric mucosal damage due to long-term alcohol damage.
The salts of example 51 and example 57 were taken as experimental compounds, and glycyrrhetinic acid was taken as a control compound. A blank control group (without ethanol) and a model group (with ethanol but without the salts of the examples or glycyrrhetinic acid) were set.
The cells were cultured in a complete RPMI 1640 medium for 6 h.
(§1) Then, the cell viability was detected.

The subject of experiment [2] is SH-SY5Y human neuroblastoma cells. The experiment in a line: Parkinson's disease cell model (6-OHDA), cell viability. The note with it: 24 h, read-out: Cell viability (%). In kind it is cell-based.
Text: The salts of example 51 and examples 57 were taken as experimental compounds, and selegiline was taken as a control compound.
as §1

What is called viability is the share of living cells, or the viability signal relative to a control. In turn, `CC1(C)[C@@H](O)CC[C@]2(C)[C@H]3C(=O)C=C4[C@@H]5C[C@@](C)(C(=O)O)CC[C@]5(C)CC[C@@]4(C)[C@]3(C)CC[C@@H]12` [Glycyrrhetinic acid, glycyrrhetinic acid] came in with a viability at 500 µg/mL in experiment [1] of 61.8%.
Regarding `C#CCN(C)[C@H](C)Cc1ccccc1` [Selegiline, selegiline], the viability at 500 µg/mL in experiment [2] was 37.5%.
